The values below come from ChEMBL document CHEMBL3758112, “Synthesis and pharmacological evaluation of trifluoromethyl containing 4-(2-pyrimidinylamino)benzamides as Hedgehog signaling pathway inhibitors” (Bioorg Med Chem, 2016).

For orientation: half-life means the time in which the quantity being followed falls by half. A lower half-life goes with fast loss. What is called AUC(0-t) is the area under the concentration-time curve up to a stated or last time point. A word on the clearance: it is the volume of plasma or blood freed of the substance per unit of time. Lower therefore signals inefficient removal. One may read the Cmax as the maximum level reached in the sampled fluid or tissue. In general, pIC50 refers to the negative decadic logarithm of the IC50, by convention in mol/L. A word on the MRT last: it is the average time that molecules of a dose stay in the body.

A short description of data set [1]: Half life in Sprague-Dawley rat at 1 mg/kg, iv measured during 2 mins to 24 hrs period post dose by LC/MS/MS method. The format is ADME, organism-based. The following applies: in vivo.
The nature of data set [2]: AUC (0 to t) in Sprague-Dawley rat at 1 mg/kg, iv measured during 2 mins to 24 hrs period post dose by LC-MS/MS method. Set-up: time 0.033-24 hr, dose 1 mg/kg, route intravenous. The following applies: in vivo. The format is ADME, organism-based.
A further data set deals with NIH3T3. Kind of data set: Potency index, ratio of vismodegib IC50 to compound IC50 for inhibition of hedgehog signalling in mouse NIH3T3 cells stably transfected with Gli-luciferase construct. The format is cell-based.
Data set [3] can be described thus: Clearance in Sprague-Dawley rat at 1 mg/kg, iv measured during 2 mins to 24 hrs period post dose by LC-MS/MS method. The format is ADME, organism-based. The following applies: in vivo.
Data set [4] is described as follows: Cmax in Sprague-Dawley rat at 1 mg/kg, iv measured during 2 mins to 24 hrs period post dose by LC-MS/MS method. The format is ADME, organism-based. Details: dose 1 mg/kg, route intravenous. The following applies: in vivo.
Data set [5] is described as follows: Apparent volume of distribution in Sprague-Dawley rat at 1 mg/kg, iv measured during 2 mins to 24 hrs period post dose by LC-MS/MS method. The format is ADME, organism-based. The following applies: in vivo, read-out: Vz.
A short description of data set [6]: Inhibition of hedgehog signalling in mouse NIH3T3 cells stably transfected with Gli-luciferase construct incubated for 48 hrs by dual luciferase reporter gene assay. The format is cell-based. The following applies: NIH3T3, 48 h.
Data set [7] is described as follows: Mean residence time (0 to t) in Sprague-Dawley rat at 1 mg/kg, iv measured during 2 mins to 24 hrs period post dose by LC/MS/MS method. The class given is ADME, organism-based. The following applies: in vivo.

pIC50: −log10 of the molar value.

`Cc1ccc(CN2CCOCC2)cc1NC(=O)c1ccc(Nc2ncc(C(F)(F)F)c(-c3ccc(OC(F)(F)F)cc3)n2)cc1` showed a half-life in data set [1] of 8.63 h. The AUC(0-t) in data set [2] was determined as 1960 ng·h/mL. Also, the Ratio IC50 in the data set with NIH3T3 turned out to be 5. In data set [3], this molecule showed a clearance of 7.82 mL/min/kg. In data set [4], this molecule gave a Cmax of 2220 ng/mL. Also, in data set [5], the Vd was determined as 5.88 L/kg. For the same molecule, in data set [6], the pIC50 was 8.84. Also, the MRT last in data set [7] was found to be 4.95 h.

As to `COc1ccc(-c2nc(Nc3ccc(C(=O)Nc4cc(CN5CCCC5)ccc4C)cc3)ncc2C(F)(F)F)cn1`, in data set [6], the negative logarithm of the IC50 (pIC50) was 8.03.

Turning to `Cc1ccc(CN2CCOCC2)cc1NC(=O)c1ccc(Nc2ncc(C(F)(F)F)c(-c3cnn(C)c3)n2)cc1`, in data set [6], the pIC50 was 7.61.

With `Cc1ccc(CN2CCN(C)CC2)cc1NC(=O)c1ccc(Nc2ncc(C(F)(F)F)c(-c3ccc(OC(F)(F)F)cc3)n2)cc1`, the half-life in data set [1] was 9.25 h. Also, the exposure AUC(0-t) in data set [2] was found to be 1240 ng·h/mL. In data set [3], this molecule showed a clearance of 11.6 mL/min/kg. Besides, the concentration in data set [4] peaked (Cmax) at 844 ng/mL. Moreover, in data set [5], the Vd amounted to 9.22 L/kg. For the same molecule, in data set [6], the pIC50 is 8.28. Moreover, the MRT last in data set [7] was found to be 7.15 h.

`Cc1ccc(CN(C)C)cc1NC(=O)c1ccc(Nc2ncc(C(F)(F)F)c(-c3ccccc3)n2)cc1` had a pIC50 in data set [6] of 7.60.

In data set [6], `Cc1ccc(CN2CCOCC2)cc1NC(=O)c1ccc(Nc2ncc(C(F)(F)F)c(-c3ccc(C#N)cc3)n2)cc1` gave a pIC50 of 8.37.

With `Cc1cnc(Nc2ccc(C(=O)Nc3c(C)cccc3C)cc2)nc1-c1ccc(OC(F)(F)F)cc1`, the pIC50 in data set [6] is 8.89.

The molecule `Cc1ccc(CN2CCOCC2)cc1NC(=O)c1ccc(Nc2ncc(C(F)(F)F)c(-c3ccccc3)n2)cc1` had a half-life in data set [1] of 2.32 h. Moreover, the AUC(0-t) in data set [2] is 807 ng·h/mL. Further, the clearance in data set [3] is 20.9 mL/min/kg. This molecule came in with a Cmax in data set [4] of 1190 ng/mL. Besides, the Vd in data set [5] was found to be 4.13 L/kg. Further, the pIC50 in data set [6] was 6.99. The MRT last in data set [7] came out at 1.23 h.

Take `O=C(NC1CCN(C(=O)CO)CC1)c1ccc(Nc2ncc(C(F)(F)F)c(-c3ccc(OC(F)(F)F)nc3)n2)cc1`: the pIC50 in data set [6] is less than 6.30.

With `Cc1ccc(CN2CCOCC2)cc1NC(=O)c1ccc(Nc2ncc(C(F)(F)F)c(-c3ccccn3)n2)cc1`, the half-life in data set [1] is 1.03 h. This molecule also showed an AUC(0-t) in data set [2] of 826 ng·h/mL. In data set [3], the clearance is 20.1 mL/min/kg. Besides, in data set [4], the highest level (Cmax) was 1420 ng/mL. Also, the Vd in data set [5] worked out at 1.8 L/kg. Besides, the pIC50 in data set [6] is 7.85. The same molecule yielded an MRT last in data set [7] of 0.93 h.

As to `Cc1ccc(CN2CCCCC2)cc1NC(=O)c1ccc(Nc2ncc(C(F)(F)F)c(-c3ccc(OC(F)(F)F)cc3)n2)cc1`, the pIC50 in data set [6] was 8.51.

In data set [6], `Cc1cccc(C)c1NC(=O)c1ccc(Nc2ncc(F)c(-c3ccc(OC(F)(F)F)cc3)n2)cc1` showed a pIC50 of 8.80.

`CCN1CCN(Cc2ccc(C)c(NC(=O)c3ccc(Nc4ncc(C(F)(F)F)c(-c5ccc(OC(F)(F)F)cc5)n4)cc3)c2)CC1`: the pIC50 in data set [6] was 7.20.

Take `CS(=O)(=O)c1ccc(C(=O)Nc2ccc(Cl)c(-c3ccccn3)c2)c(Cl)c1` [VISMODEGIB]: in data set [2], the AUC(0-t) was found to be 2460 ng·h/mL. The pIC50 in data set [6] was 8.14.

Consider `Cc1ccc(CN(C)C)cc1NC(=O)c1ccc(Nc2ncc(C(F)(F)F)c(-c3ccc(OC(F)(F)F)cc3)n2)cc1`, for which the pIC50 in data set [6] is 7.74.

The molecule `CCn1cc(-c2nc(Nc3ccc(C(=O)Nc4cc(CN5CCOCC5)ccc4C)cc3)ncc2C(F)(F)F)cn1` showed a pIC50 in data set [6] of 7.77.

Consider `Cc1ccc(CN2CCOCC2)cc1NC(=O)c1ccc(Nc2ncc(C(F)(F)F)c(-c3cccnc3)n2)cc1`, for which the pIC50 in data set [6] is 7.25.

Regarding `O=C(c1ccc(Nc2ncc(C(F)(F)F)c(-c3ccc(OC(F)(F)F)nc3)n2)cc1)N1CCCC(N2CCOCC2)C1` (stereo unspecified), in data set [6], the pIC50 was less than 6.30.

Turning to `Cc1ccc(CN2CCCC2)cc1NC(=O)c1ccc(Nc2ncc(C(F)(F)F)c(-c3ccc(OC(F)(F)F)cc3)n2)cc1`, the pIC50 in data set [6] is 8.37.

Molecule `Cc1ccc(CN2CCCC2)cc1NC(=O)c1ccc(Nc2ncc(C(F)(F)F)c(-c3cnn(C)c3)n2)cc1` had a pIC50 in data set [6] of 7.58.
